Measured values as given in patent US4305954A, “Antiinflammatory 3,4-dihydro(or 1,4-dihydro)-2-[(substituted)thio]-[1]benzopyrano[3,4-d]imidazoles and their corresponding sulfoxides and sulfones” (E. I. Du Pont de Nemours and Company, priority 1981, dated 1981).
Read-outs that look alike come from different tables or passages of the source.

System: adjuvant-induced arthritis in rats
Assay: Established adjuvant-induced arthritis in rats
Type: in vivo, rat (Charles River Lewis male rats)
Details: for ED50: Rattus norvegicus, 24 h, read-out: Adjuvant Arthritis ED50; for % reduction at the indicated dose (paw volume, Adjuvant Arthritis): 9 mg/kg
[1] = oral by gavage, 7 daily doses, ED50% decrease from control paw volume (uninjected left hind paw), read one day after last dose

| SMILES | ED50 (po) [mg/kg] | ED50 [1] [mg/kg] | % reduction at the indicated dose (paw volume, Adjuvant Arthritis) (oral by gavage, 7 daily doses) [%] |
| --- | --- | --- | --- |
| CC(=O)Oc1ccccc1C(=O)O [Aspirin, aspirin, reference compound] | 305 | – | – |
| COc1ccc2c(c1)c(CC(=O)O)c(C)n2C(=O)c1ccc(Cl)cc1 [Indomethacin, indomethacin, reference compound] | 0.3 | – | – |
| O=S(=O)(c1nc2c([nH]1)COc1cc(F)ccc1-2)C(F)(F)C(F)F [Example 6] | – | > 9 | 22 |
| O=S(=O)(c1nc2c([nH]1)COc1cc(Cl)c(Cl)cc1-2)C(F)(F)C(F)F [Example 2, 7,8-Dichloro-3,4-dihydro(or 1,4-dihydro)-2-[(1,1,2,2-tetrafluoroethyl)sulfonyl]-[1]benzopyrano[3,4-d]imidazole] | – | 3.1 | – |
| FC(F)C(F)(F)Sc1nc2c([nH]1)COc1cc(Cl)c(Cl)cc1-2 [Example 1, 7,8-Dichloro-3,4-dihydro(or 1,4-dihydro)-2-[(1,1,2,2-tetrafluoroethyl)-thio]-[1]benzopyrano[3,4-d]imidazole] | – | 8.2 | – |
| CCCCC1C(=O)N(c2ccccc2)N(c2ccccc2)C1=O [Phenylbutazone, phenylbutazone, reference compound] | – | 10 | – |
| FC(F)C(F)(F)Sc1nc2c([nH]1)COc1ccc(Cl)cc1-2 [Example 4] | – | > 9 | 30 |
| CC(C)Cc1ccc(C(C)C(=O)O)cc1 (centres unmarked) [Ibuprofen, ibuprofen, reference compound] | – | 100 | – |
| Fc1ccc2c(c1)OCc1[nH]c(SC(F)(F)C(F)F)nc1-2 [Example 5] | – | 50 | – |
